From ChEMBL document CHEMBL1201861, “Genomics of Drug Sensitity in Cancer screening data, Wellcome Trust Sanger Institute”

Columns and labels:
Test in all cases: cells
8-MG-BA = type: functional, cell-based, Homo sapiens; details: Homo sapiens, 8-MG-BA;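 note: growth inhibition of 8-MG-BA cells, read out with a cell viability assay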
Description: SANGER: Inhibition of human 8-MG-BA cell growth in a cell viability assay.

KURAMOCHI = type: functional, cell-based; details: Homo sapiens;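 note: growth inhibition of KURAMOCHI cells, read out with a cell viability assay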
Description: SANGER: Inhibition of human KURAMOCHI cell growth in a cell viability assay.

SW1417 = type: functional, cell-based, Homo sapiens; details: Homo sapiens, SW1417;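 note: growth inhibition of human SW1417 cells, read out with a cell viability assay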
Description: SANGER: Inhibition of human SW1417 cell growth in a cell viability assay.

OVCAR-4 = type: functional, cell-based, Homo sapiens; details: Homo sapiens, OVCAR-4;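 note: growth inhibition of human OVCAR-4 cells, measured with a cell viability assay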
Description: SANGER: Inhibition of human OVCAR-4 cell growth in a cell viability assay.

NCI-H446 = type: functional, cell-based; details: Homo sapiens;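 note: growth inhibition of NCI-H446 cells determined by a cell viability assay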
Description: SANGER: Inhibition of human NCI-H446 cell growth in a cell viability assay.

VM-CUB-1 = type: functional, cell-based; details: Homo sapiens;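 note: cell viability assay measuring growth inhibition of the human VM-CUB-1 cell line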
Description: SANGER: Inhibition of human VM-CUB-1 cell growth in a cell viability assay.

DOHH-2 = type: functional, cell-based; details: Homo sapiens;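 note: growth inhibition of human DOHH-2 cells, read out with a cell viability assay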
Description: SANGER: Inhibition of human DOHH-2 cell growth in a cell viability assay.

8505C = type: functional, cell-based, Homo sapiens; details: Homo sapiens, 8505C
Description: SANGER: Inhibition of human 8505C cell growth in a cell viability assay.

ES6 = type: functional, cell-based, Homo sapiens; details: Homo sapiens, ES6;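 note: growth inhibition of human ES6 cells, read out with a cell viability assay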
Description: SANGER: Inhibition of human ES6 cell growth in a cell viability assay.

PFSK-1 = type: functional, cell-based, Homo sapiens; details: Homo sapiens, PFSK-1;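 note: cell viability assay measuring how strongly compounds suppress growth of human PFSK-1 cells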
Description: SANGER: Inhibition of human PFSK-1 cell growth in a cell viability assay.

SNU-5 = type: functional, cell-based; details: Homo sapiens;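 note: cell viability readout used to measure growth inhibition in human NCI-SNU-5 cells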
Description: SANGER: Inhibition of human NCI-SNU-5 cell growth in a cell viability assay.

ACHN = type: functional, cell-based, Homo sapiens; details: Homo sapiens, ACHN;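 note: cell viability read-out used to gauge how strongly growth of human ACHN cells is suppressed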
Description: SANGER: Inhibition of human ACHN cell growth in a cell viability assay.

KYSE-410 = type: functional, cell-based, Homo sapiens; details: Homo sapiens, KYSE-410;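 note: growth inhibition of KYSE-410 cells, measured through a cell viability readout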
Description: SANGER: Inhibition of human KYSE-410 cell growth in a cell viability assay.

HT = type: functional, cell-based; details: Homo sapiens
Description: SANGER: Inhibition of human HT cell growth in a cell viability assay.

A101D = type: functional, cell-based, Homo sapiens; details: Homo sapiens, A101D;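 note: growth inhibition of the cell line, measured with a viability assay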
Description: SANGER: Inhibition of human A101D cell growth in a cell viability assay.

MFM-223 = type: functional, cell-based, Homo sapiens; details: Homo sapiens, MFM-223
Description: SANGER: Inhibition of human MFM-223 cell growth in a cell viability assay.

SK-LU-1 = type: functional, cell-based, Homo sapiens; details: Homo sapiens, SK-LU-1;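 note: cell viability assay measuring growth inhibition of human SK-LU-1 cells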
Description: SANGER: Inhibition of human SK-LU-1 cell growth in a cell viability assay.

JVM-2 = type: functional, cell-based; details: Homo sapiens;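 note: growth inhibition of JVM-2 cells determined by a cell viability assay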
Description: SANGER: Inhibition of human JVM-2 cell growth in a cell viability assay.

SK-MEL-30 = type: functional, cell-based; details: Homo sapiens;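 note: growth inhibition of SK-MEL-30 cells, determined with a cell viability assay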
Description: SANGER: Inhibition of human SK-MEL-30 cell growth in a cell viability assay.

KYSE-150 cell line = type: functional, cell-based, Homo sapiens; details: Homo sapiens, KYSE-150;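 note: growth inhibition of human KYSE-150 cells, read out with a cell viability assay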
Description: SANGER: Inhibition of human KYSE-150 cell growth in a cell viability assay.

SW626 = type: functional, cell-based, Homo sapiens; details: Homo sapiens, SW626;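 note: growth inhibition of SW626 cells, measured with a cell viability assay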
Description: SANGER: Inhibition of human SW626 cell growth in a cell viability assay.

NCI-H1650 = type: functional, cell-based, Homo sapiens; details: Homo sapiens, NCI-H1650;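 note: growth inhibition of human NCI-H1650 cells measured by a cell viability assay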
Description: SANGER: Inhibition of human NCI-H1650 cell growth in a cell viability assay.

U2OS = type: functional, cell-based, Homo sapiens, U-2-OS; details: Homo sapiens, U2OS;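 note: growth inhibition of human U-2-OS cells, determined with a cell viability assay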
Description: SANGER: Inhibition of human U-2-OS cell growth in a cell viability assay.

LS-411N = type: functional, cell-based, Homo sapiens; details: Homo sapiens, LS-411N
SBC-1 = type: functional, cell-based; details: Homo sapiens;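 note: cell viability assay measuring growth inhibition of the SBC-1 cell line, IC50 being the concentration that halves growth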
Description: SANGER: Inhibition of human SBC-1 cell growth in a cell viability assay.

IA-LM = type: functional, cell-based, Homo sapiens; details: Homo sapiens, IA-LM;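 note: cell viability assay measuring growth inhibition of human IA-LM cells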
Description: SANGER: Inhibition of human IA-LM cell growth in a cell viability assay.

JEG-3 = type: functional, cell-based, Homo sapiens; details: Homo sapiens, JEG-3;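 note: growth inhibition of human JEG-3 cells, read out with a cell viability assay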
Description: SANGER: Inhibition of human JEG-3 cell growth in a cell viability assay.

NCI-H1623 = type: functional, cell-based, Homo sapiens; details: Homo sapiens, NCI-H1623;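 note: cell viability assay used as the read-out for growth inhibition of NCI-H1623 cells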
Description: SANGER: Inhibition of human NCI-H1623 cell growth in a cell viability assay.

HEL = type: functional, cell-based, Homo sapiens; details: Homo sapiens, HEL;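 note: growth inhibition of HEL cells, read out with a cell viability assay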
Description: SANGER: Inhibition of human HEL cell growth in a cell viability assay.

LCLC-97TM1 = type: functional, cell-based, Homo sapiens; details: Homo sapiens, LCLC-97TM1;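 note: cell viability assay measuring growth inhibition of human LCLC-97TM1 cells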
Description: SANGER: Inhibition of human LCLC-97TM1 cell growth in a cell viability assay.

BT-20 = type: functional, cell-based, Homo sapiens; details: Homo sapiens, BT-20;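 note: cell viability assay measuring suppression of growth in human BT-20 cells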
Description: SANGER: Inhibition of human BT-20 cell growth in a cell viability assay.

NCI-H441 = type: functional, cell-based; details: Homo sapiens;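 note: growth inhibition of NCI-H441 cells, read out with a cell viability assay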
Description: SANGER: Inhibition of human NCI-H441 cell growth in a cell viability assay.

DB = type: functional, cell-based; details: Homo sapiens
Description: SANGER: Inhibition of human DB cell growth in a cell viability assay.

SAOS-2 = type: functional, cell-based, Homo sapiens; details: Homo sapiens, SAOS-2;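 note: growth inhibition of human Saos-2 cells determined by a cell viability assay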
Description: SANGER: Inhibition of human Saos-2 cell growth in a cell viability assay.

ES4 = type: functional, cell-based, Homo sapiens; details: Homo sapiens, ES4;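 note: growth inhibition of human ES4 cells, read out by a cell viability assay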
Description: SANGER: Inhibition of human ES4 cell growth in a cell viability assay.

MN-60 = type: functional, cell-based; details: Homo sapiens;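 note: growth inhibition of the MN-60 cell line, determined with a cell viability assay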
Description: SANGER: Inhibition of human MN-60 cell growth in a cell viability assay.

SW837 = type: functional, cell-based, Homo sapiens; details: Homo sapiens, SW837;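 note: growth inhibition of SW837 cells, determined with a cell viability assay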
Description: SANGER: Inhibition of human SW837 cell growth in a cell viability assay.

NCI-H720 = type: functional, cell-based; details: Homo sapiens;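 note: growth inhibition of human NCI-H720 cells determined by a cell viability assay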
Description: SANGER: Inhibition of human NCI-H720 cell growth in a cell viability assay.

LB2518-MEL = type: functional, cell-based, Homo sapiens; details: Homo sapiens, LB2518-MEL;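 note: growth inhibition of human LB2518-MEL cells, measured with a cell viability assay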
Description: SANGER: Inhibition of human LB2518-MEL cell growth in a cell viability assay.

NCI-H1648 = type: functional, cell-based, Homo sapiens; details: Homo sapiens, NCI-H1648;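 note: cell viability assay measuring inhibition of NCI-H1648 cell growth, from the Sanger screening data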
Description: SANGER: Inhibition of human NCI-H1648 cell growth in a cell viability assay.

HSC-2 = type: functional, cell-based, Homo sapiens; details: Homo sapiens, HSC-2;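 note: growth inhibition of human HSC-2 cells, read out by a cell viability assay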
Description: SANGER: Inhibition of human HSC-2 cell growth in a cell viability assay.

GI-1 = type: functional, cell-based, Homo sapiens; details: Homo sapiens, GI-1;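 note: growth inhibition of human GI-1 cells, measured with a cell viability readout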
Description: SANGER: Inhibition of human GI-1 cell growth in a cell viability assay.

SNU-387 = type: functional, cell-based, Homo sapiens; details: Homo sapiens, SNU-387
Description: SANGER: Inhibition of human SNU-387 cell growth in a cell viability assay.

CTV-1 = type: functional, cell-based; details: Homo sapiens;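 note: growth inhibition of the cell line, read out with a cell viability assay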
Description: SANGER: Inhibition of human CTV-1 cell growth in a cell viability assay.

HT-144 = type: functional, cell-based, Homo sapiens; details: Homo sapiens, HT-144
Description: SANGER: Inhibition of human HT-144 cell growth in a cell viability assay.

MFE-280 = type: functional, cell-based, Homo sapiens; details: Homo sapiens, MFE-280;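 note: growth inhibition of MFE-280 cells, determined with a cell viability readout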
Description: SANGER: Inhibition of human MFE-280 cell growth in a cell viability assay.

EFM-19 = type: functional, cell-based, Homo sapiens; details: Homo sapiens, EFM-19;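 note: growth inhibition of human EFM-19 cells, measured in a cell viability assay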
Description: SANGER: Inhibition of human EFM-19 cell growth in a cell viability assay.

KARPAS-45 = type: functional, cell-based; details: Homo sapiens;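 note: inhibition of cell line growth, read out through a viability assay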
Description: SANGER: Inhibition of human KARPAS-45 cell growth in a cell viability assay.

HOP-92 = type: functional, cell-based, Homo sapiens; details: Homo sapiens, HOP-92;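 note: cell viability readout, with IC50 reflecting inhibition of HOP-92 cell growth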
Description: SANGER: Inhibition of human HOP-92 cell growth in a cell viability assay.

HCC1569 = type: functional, cell-based, Homo sapiens; details: Homo sapiens, HCC1569;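 note: growth inhibition of human HCC1569 cells, read out with a cell viability assay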
Description: SANGER: Inhibition of human HCC1569 cell growth in a cell viability assay.

NMC-G1 = type: functional, cell-based, Homo sapiens; details: Homo sapiens, NMC-G1;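 note: growth inhibition of the NMC-G1 cell line, measured with a cell viability read-out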
Description: SANGER: Inhibition of human NMC-G1 cell growth in a cell viability assay.

MZ1-PC = type: functional, cell-based, Homo sapiens; details: Homo sapiens, MZ1-PC;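 note: cell viability assay measuring growth inhibition of human MZ1-PC cells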
Description: SANGER: Inhibition of human MZ1-PC cell growth in a cell viability assay.

NCI-H2342 = type: functional, cell-based; details: Homo sapiens;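 note: growth inhibition of the cancer cell line, determined with a cell viability assay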
Description: SANGER: Inhibition of human NCI-H2342 cell growth in a cell viability assay.

**Q.** With `O=C(c1cc(Cc2n[nH]c(=O)c3ccccc23)ccc1F)N1CCN(C(=O)C2CC2)CC1` [OLAPARIB] as the molecule, how does the IC50 (8-MG-BA) read?
**A.** > 5 µM

**Q.** And the IC50 (KURAMOCHI)?
**A.** > 5 µM

**Q.** What about the IC50 (SW1417) of the same molecule?
**A.** > 5 µM

**Q.** And the IC50 (OVCAR-4)?
**A.** > 5 µM

**Q.** And the IC50 (NCI-H446)?
**A.** > 5 µM

**Q.** What about the IC50 (VM-CUB-1) of the same molecule?
**A.** > 5 µM

**Q.** And the IC50 (DOHH-2)?
**A.** > 5 µM

**Q.** What about the IC50 (8505C) of the same molecule?
**A.** > 5 µM

**Q.** What about the IC50 (ES6) of the same molecule?
**A.** > 5 µM

**Q.** What about the IC50 (PFSK-1) of the same molecule?
**A.** > 5 µM

**Q.** What about the IC50 (SNU-5) of the same molecule?
**A.** > 5 µM

**Q.** What about the IC50 (ACHN) of the same molecule?
**A.** > 5 µM

**Q.** And the IC50 (KYSE-410)?
**A.** > 5 µM

**Q.** What about the IC50 (HT) of the same molecule?
**A.** > 5 µM

**Q.** And the IC50 (A101D)?
**A.** > 5 µM

**Q.** And the IC50 (MFM-223)?
**A.** > 5 µM

**Q.** And the IC50 (SK-LU-1)?
**A.** > 5 µM

**Q.** And the IC50 (JVM-2)?
**A.** > 5 µM

**Q.** What about the IC50 (SK-MEL-30) of the same molecule?
**A.** > 5 µM

**Q.** What about the IC50 (KYSE-150 cell line) of the same molecule?
**A.** > 5 µM

**Q.** And the IC50 (SW626)?
**A.** > 5 µM

**Q.** What about the IC50 (NCI-H1650) of the same molecule?
**A.** > 5 µM

**Q.** And the IC50 (U2OS)?
**A.** > 5 µM

**Q.** What about the IC50 (LS-411N) of the same molecule?
**A.** > 5 µM

**Q.** What about the IC50 (SBC-1) of the same molecule?
**A.** 4.81 µM

**Q.** What about the IC50 (IA-LM) of the same molecule?
**A.** > 5 µM

**Q.** And the IC50 (JEG-3)?
**A.** > 5 µM

**Q.** And the IC50 (NCI-H1623)?
**A.** > 5 µM

**Q.** And the IC50 (HEL)?
**A.** > 5 µM

**Q.** And the IC50 (LCLC-97TM1)?
**A.** > 5 µM

**Q.** And the IC50 (BT-20)?
**A.** > 5 µM

**Q.** What about the IC50 (NCI-H441) of the same molecule?
**A.** > 5 µM

**Q.** And the IC50 (DB)?
**A.** 3.65 µM

**Q.** And the IC50 (SAOS-2)?
**A.** > 5 µM

**Q.** And the IC50 (ES4)?
**A.** > 5 µM

**Q.** And the IC50 (MN-60)?
**A.** > 5 µM

**Q.** What about the IC50 (SW837) of the same molecule?
**A.** > 5 µM

**Q.** What about the IC50 (NCI-H720) of the same molecule?
**A.** 2.21 µM

**Q.** And the IC50 (LB2518-MEL)?
**A.** > 5 µM

**Q.** And the IC50 (NCI-H1648)?
**A.** > 5 µM

**Q.** And the IC50 (HSC-2)?
**A.** > 5 µM

**Q.** What about the IC50 (GI-1) of the same molecule?
**A.** > 5 µM

**Q.** What about the IC50 (SNU-387) of the same molecule?
**A.** > 5 µM

**Q.** And the IC50 (CTV-1)?
**A.** > 5 µM

**Q.** What about the IC50 (HT-144) of the same molecule?
**A.** > 5 µM

**Q.** And the IC50 (MFE-280)?
**A.** > 5 µM

**Q.** What about the IC50 (EFM-19) of the same molecule?
**A.** > 5 µM

**Q.** And the IC50 (KARPAS-45)?
**A.** > 5 µM

**Q.** And the IC50 (HOP-92)?
**A.** > 5 µM

**Q.** And the IC50 (HCC1569)?
**A.** > 5 µM

**Q.** What about the IC50 (NMC-G1) of the same molecule?
**A.** > 5 µM

**Q.** And the IC50 (MZ1-PC)?
**A.** > 5 µM

**Q.** And the IC50 (NCI-H2342)?
**A.** > 5 µM
